# Publication PMC8903829 (eLife, 2022)
# “And” between values parts separate entries of the source, which are not always exact repeats. Equal values may be shown once. “Also recorded” adds a separate entry of the source.
# Assays:
# hNaV1.5 = target: T1, hNaV1.5 (Homo sapiens, UniProt Q14524); experiment: Qube 384 automated patch-clamp, inactivated-state inhibition; format: cell-based
# T1 construct: expression vector containing the full-length cDNA coding for specific human and mouse sodium channel α-subunit; expressed in transfected cells
# mNaV1.1 = target: T2, mNaV1.1 (Mus musculus, UniProt A2APX8); experiment: as above; format: cell-based
# T2 construct: expression vector containing the full-length cDNA coding for specific human and mouse sodium channel α-subunit; expressed in transfected cells
# Excerpt: (§1) All of the cell lines tested negative for mycoplasma.
# (§2) Inorm(CPD)=(ICPD−Icontrol)/(ITTX−Icontrol).
# hNaV1.7 = target: T3, hNaV1.7 (Homo sapiens, UniProt Q15858); experiment: as above; format: cell-based
# T3 construct: expression vector containing the full-length cDNA coding for specific human and mouse sodium channel α-subunit; expressed in transfected cells
# Excerpt: as §1, §2
# mNaV1.2 = target: T4, mNaV1.2 (Mus musculus, UniProt B1AWN6); experiment: as above; format: cell-based
# T4 construct: expression vector containing the full-length cDNA coding for specific human and mouse sodium channel α-subunit; expressed in transfected cells
# Excerpt: as §1, §2
# hNaV1.2 = target: T5, hNaV1.2 (Homo sapiens, UniProt Q99250); experiment: as above; format: cell-based
# T5 construct: expression vector containing the full-length cDNA coding for specific human and mouse sodium channel α-subunit; expressed in transfected cells
# Excerpt: as §1, §2
# hNaV1.3 = target: T6, hNaV1.3 (Homo sapiens, UniProt Q9NY46); experiment: as above; format: cell-based
# T6 construct: expression vector containing the full-length cDNA coding for specific human and mouse sodium channel α-subunit; expressed in transfected cells
# Excerpt: as §1, §2
# [1] = test system: glutamatergic pyramidal neurons from mouse layer five neocortex; experiment: Current-clamp recording in brain slices, action-potential firing; format: cell-based; settings: for WT Cortical pyramidal neurons APs/1s: 0.25 μM, individual neurons; for Cumulative number of action potentials fired by each cell on increasing current injections: 250 nM, WT cortical pyramidal neurons
# Protocol: Parasagittal cortical brain slices were prepared from> P21 mice using standard procedures (adapted from Tai et al., PNAS 2014). Briefly, the mouse was deeply anaesthetized with isoflurane and decapitated. The brain was removed and placed into chilled artificial cerebrospinal fluid (aCSF) solution containing (in mM): 125 NaCl, 25 NaHCO3, 2.5 KCl, 1.25 NaH2PO4, 2 CaCl2, 2 MgCl2, 10 d-glucose, pH 7.3, osmolarity adjusted to ~306 mOsm using sucrose. All solutions were saturated with 95% O2 and 5% CO2 constantly perfused with 95% O2/5% CO2. Slices with a thickness of 400 µm were prepared using a vibratome (Ted Pella, Inc). Following sectioning, the slices were placed in a holding chamber and incubated in a water bath at 34 °C for 15 min. The brain slices were removed from the water bath and held at room temperature for 60 min prior to recording.
# All experiments involving rodent subjects were performed in accordance with the guidelines of the Canadian Council on Animal Care (CCAC). Following a 60-min incubation at room temperature, a brain slice was selected and placed on the stage of an upright microscope (SliceScope Pro 2000, Scientifica). The slice was constantly perfused with room temperature aCSF, containing 0.1% DMSO as a vehicle control, and oxygenated with 95% O2/5% CO2.The slice was visualized using brightfield microscopy, and a healthy neuron was selected from neocortical layer 5. […] Stimulation was applied in current-clamp mode, and consisted of a series of 1000ms square pulses, beginning at –20 pA and increasing by +20 pA increments (3000ms between pulses).
# The slice was incubated in circulating compound for 10 min before repeating the series of square pulse stimulations. Working stock solutions were prepared in DMSO at a concentration of 20 mM.
# All data analysis was done offline using ClampFit 10.7 (Molecular Devices). Data are presented as a mean ± SEM. For each sweep, the number of evoked APs was counted, and plotted as a function of current injection (beginning with –20 pA). […] Statistical significance was assessed using paired, two-way, student’s t-test applied at each current injection level with significance considered p < 0.05.
# hNaV1.4 = hNaV1.4 (Homo sapiens, UniProt P35499); experiment: Qube 384 automated patch-clamp, inactivated-state inhibition
# T1 sequence (Q14524 whole entry): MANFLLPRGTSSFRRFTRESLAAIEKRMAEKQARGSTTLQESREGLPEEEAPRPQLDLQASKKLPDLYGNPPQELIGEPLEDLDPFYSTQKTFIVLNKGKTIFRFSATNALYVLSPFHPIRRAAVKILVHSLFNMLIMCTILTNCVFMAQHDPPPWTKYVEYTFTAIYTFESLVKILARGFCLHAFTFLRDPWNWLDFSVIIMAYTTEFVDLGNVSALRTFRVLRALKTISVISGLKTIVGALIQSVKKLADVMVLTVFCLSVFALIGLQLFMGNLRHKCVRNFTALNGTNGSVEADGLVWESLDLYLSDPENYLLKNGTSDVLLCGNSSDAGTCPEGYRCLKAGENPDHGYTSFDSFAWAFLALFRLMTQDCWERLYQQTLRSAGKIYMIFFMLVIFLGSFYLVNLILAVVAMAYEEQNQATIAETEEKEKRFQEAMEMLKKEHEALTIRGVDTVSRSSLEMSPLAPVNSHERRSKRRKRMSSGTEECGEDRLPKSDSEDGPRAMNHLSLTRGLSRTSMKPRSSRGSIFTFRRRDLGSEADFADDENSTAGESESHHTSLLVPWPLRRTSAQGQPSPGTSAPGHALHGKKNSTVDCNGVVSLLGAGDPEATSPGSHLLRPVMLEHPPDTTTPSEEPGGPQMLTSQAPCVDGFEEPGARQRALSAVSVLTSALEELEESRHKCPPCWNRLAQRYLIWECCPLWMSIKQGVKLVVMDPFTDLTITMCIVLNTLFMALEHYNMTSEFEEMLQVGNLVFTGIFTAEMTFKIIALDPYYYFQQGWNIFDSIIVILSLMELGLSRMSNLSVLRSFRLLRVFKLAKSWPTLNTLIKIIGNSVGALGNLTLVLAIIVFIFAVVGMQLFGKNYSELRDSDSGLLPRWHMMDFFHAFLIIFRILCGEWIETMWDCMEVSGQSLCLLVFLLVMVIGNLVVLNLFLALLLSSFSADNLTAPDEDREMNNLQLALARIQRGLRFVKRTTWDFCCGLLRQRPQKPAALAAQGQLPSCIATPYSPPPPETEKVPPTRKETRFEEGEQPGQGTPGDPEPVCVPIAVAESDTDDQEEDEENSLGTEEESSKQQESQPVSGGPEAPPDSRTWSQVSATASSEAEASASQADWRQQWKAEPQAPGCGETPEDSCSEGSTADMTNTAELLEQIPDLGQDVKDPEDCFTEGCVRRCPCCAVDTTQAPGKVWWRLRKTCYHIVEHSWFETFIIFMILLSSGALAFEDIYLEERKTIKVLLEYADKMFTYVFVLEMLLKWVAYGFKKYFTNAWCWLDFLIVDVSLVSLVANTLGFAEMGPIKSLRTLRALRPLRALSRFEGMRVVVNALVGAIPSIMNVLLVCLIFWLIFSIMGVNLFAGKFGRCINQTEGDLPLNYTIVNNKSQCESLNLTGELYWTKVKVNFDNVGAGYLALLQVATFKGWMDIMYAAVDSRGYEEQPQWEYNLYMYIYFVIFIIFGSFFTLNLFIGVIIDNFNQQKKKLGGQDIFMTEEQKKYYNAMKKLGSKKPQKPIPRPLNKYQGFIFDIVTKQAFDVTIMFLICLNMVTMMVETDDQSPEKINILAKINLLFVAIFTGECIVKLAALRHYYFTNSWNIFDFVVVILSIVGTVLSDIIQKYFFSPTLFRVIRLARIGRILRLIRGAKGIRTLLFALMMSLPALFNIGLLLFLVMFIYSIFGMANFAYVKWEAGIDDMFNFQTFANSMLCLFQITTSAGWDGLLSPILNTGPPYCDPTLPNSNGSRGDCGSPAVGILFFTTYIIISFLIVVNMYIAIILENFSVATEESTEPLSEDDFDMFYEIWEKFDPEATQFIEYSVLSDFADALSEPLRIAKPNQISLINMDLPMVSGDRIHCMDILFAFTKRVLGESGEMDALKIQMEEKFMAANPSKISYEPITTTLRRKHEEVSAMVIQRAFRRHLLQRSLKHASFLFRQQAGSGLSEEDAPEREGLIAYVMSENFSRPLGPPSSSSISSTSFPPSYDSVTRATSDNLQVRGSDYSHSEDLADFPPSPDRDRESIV
# T5 sequence (Q99250 whole entry): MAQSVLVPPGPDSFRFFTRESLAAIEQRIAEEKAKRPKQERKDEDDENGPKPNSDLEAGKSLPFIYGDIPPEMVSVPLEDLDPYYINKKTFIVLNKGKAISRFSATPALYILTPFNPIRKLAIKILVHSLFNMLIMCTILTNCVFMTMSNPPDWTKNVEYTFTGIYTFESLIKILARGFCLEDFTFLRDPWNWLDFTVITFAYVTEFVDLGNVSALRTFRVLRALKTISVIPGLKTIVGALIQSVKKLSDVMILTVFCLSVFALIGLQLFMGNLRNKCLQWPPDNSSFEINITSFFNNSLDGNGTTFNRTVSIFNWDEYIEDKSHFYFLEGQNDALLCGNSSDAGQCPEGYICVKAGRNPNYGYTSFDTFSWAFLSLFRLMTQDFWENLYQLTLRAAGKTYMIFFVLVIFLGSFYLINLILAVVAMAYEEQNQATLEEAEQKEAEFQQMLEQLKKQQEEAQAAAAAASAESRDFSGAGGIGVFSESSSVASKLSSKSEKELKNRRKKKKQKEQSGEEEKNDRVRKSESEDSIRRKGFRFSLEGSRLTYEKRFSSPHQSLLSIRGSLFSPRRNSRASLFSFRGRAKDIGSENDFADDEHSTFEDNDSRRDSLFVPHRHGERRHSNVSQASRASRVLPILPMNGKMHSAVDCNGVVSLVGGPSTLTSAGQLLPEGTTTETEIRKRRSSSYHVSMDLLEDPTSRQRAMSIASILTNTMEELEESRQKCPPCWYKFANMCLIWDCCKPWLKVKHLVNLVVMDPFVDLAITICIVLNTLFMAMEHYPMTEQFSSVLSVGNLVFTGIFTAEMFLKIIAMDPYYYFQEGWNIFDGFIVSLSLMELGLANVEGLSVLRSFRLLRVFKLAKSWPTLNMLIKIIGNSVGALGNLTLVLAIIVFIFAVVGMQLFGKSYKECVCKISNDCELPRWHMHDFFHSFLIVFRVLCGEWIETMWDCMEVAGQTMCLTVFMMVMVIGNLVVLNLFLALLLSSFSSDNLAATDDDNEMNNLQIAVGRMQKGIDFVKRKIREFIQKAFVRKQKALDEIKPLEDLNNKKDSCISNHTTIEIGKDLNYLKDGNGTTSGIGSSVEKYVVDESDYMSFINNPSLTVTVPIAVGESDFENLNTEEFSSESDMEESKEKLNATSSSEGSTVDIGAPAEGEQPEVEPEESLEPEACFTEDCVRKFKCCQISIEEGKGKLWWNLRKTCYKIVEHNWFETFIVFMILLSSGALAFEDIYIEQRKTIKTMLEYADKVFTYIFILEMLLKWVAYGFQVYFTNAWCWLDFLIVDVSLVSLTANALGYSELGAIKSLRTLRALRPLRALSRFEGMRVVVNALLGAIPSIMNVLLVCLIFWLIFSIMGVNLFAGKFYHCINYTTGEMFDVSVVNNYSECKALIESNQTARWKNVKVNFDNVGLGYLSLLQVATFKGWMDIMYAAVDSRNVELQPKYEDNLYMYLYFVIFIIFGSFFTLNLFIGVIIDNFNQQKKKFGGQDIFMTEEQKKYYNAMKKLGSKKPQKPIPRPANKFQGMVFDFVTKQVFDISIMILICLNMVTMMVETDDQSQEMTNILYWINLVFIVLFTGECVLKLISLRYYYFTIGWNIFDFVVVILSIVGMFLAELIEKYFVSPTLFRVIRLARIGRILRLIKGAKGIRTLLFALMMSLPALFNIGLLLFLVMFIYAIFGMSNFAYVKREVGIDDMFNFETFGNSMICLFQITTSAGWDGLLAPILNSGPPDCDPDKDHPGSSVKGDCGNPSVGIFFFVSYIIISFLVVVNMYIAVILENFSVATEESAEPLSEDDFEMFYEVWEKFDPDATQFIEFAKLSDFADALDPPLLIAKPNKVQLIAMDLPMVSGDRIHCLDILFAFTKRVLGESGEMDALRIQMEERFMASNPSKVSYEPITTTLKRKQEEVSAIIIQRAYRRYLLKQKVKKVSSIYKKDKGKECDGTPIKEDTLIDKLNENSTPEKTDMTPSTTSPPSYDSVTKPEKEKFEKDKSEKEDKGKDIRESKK
structure (smiles),measurement,setting,value
Cc1cc(S(=O)(=O)Nc2cscn2)c(F)cc1N(C)[C@H]1CCN(Cc2ccccc2)C1 [NBI-921352],inhibition at 30 µM,"hNaV1.5; 30 µM, NaV1.5, read-out: inhibition at the highest concentration tested",< 50%
same,"hNaV1.5 current (352)/(Vehicle), mean",hNaV1.5; -4.52288 Log M,0.24
same,"hNaV1.5 current (352)/(Vehicle), mean",hNaV1.5; -5 Log M,0.1
same,"hNaV1.5 current (352)/(Vehicle), mean",hNaV1.5; -5.47716 Log M,0.02
same,"hNaV1.5 current (352)/(Vehicle), mean",hNaV1.5; -5.95429 Log M,0.05
same,"hNaV1.5 current (352)/(Vehicle), mean",hNaV1.5; -6.91009 Log M,0.04
same,"hNaV1.5 current (352)/(Vehicle), mean",hNaV1.5; -7.38722 Log M,-0.02
same,"hNaV1.5 current (352)/(Vehicle), mean",hNaV1.5; -7.85387 Log M,0.03
same,mNaV1.1 current (352)/(Vehicle),mNaV1.1; -4.22185 Log M,0.61
same,mNaV1.1 current (352)/(Vehicle),mNaV1.1; -4.69897 Log M,0.28
same,mNaV1.1 current (352)/(Vehicle),mNaV1.1; -5.17607 Log M,0.19
same,mNaV1.1 current (352)/(Vehicle),mNaV1.1; -5.65326 Log M,0.12
same,mNaV1.1 current (352)/(Vehicle),mNaV1.1; -6.13018 Log M,0.05
same,mNaV1.1 current (352)/(Vehicle),mNaV1.1; -6.6073 Log M,-0.03
same,mNaV1.1 current (352)/(Vehicle),mNaV1.1; -7.08619 Log M,-0.01
same,mNaV1.1 current (352)/(Vehicle),mNaV1.1; -7.56864 Log M,0
same,IC50,mNaV1.1; Vh -45 mV,41 µM
same,"hNav1.7 current (352)/(Vehicle), mean",hNaV1.7; -4.52288 Log M,0.74
same,"hNav1.7 current (352)/(Vehicle), mean",hNaV1.7; -5 Log M,0.41
same,"hNav1.7 current (352)/(Vehicle), mean",hNaV1.7; -5.47716 Log M,0.2
same,"hNav1.7 current (352)/(Vehicle), mean",hNaV1.7; -5.95429 Log M,0.08
same,"hNav1.7 current (352)/(Vehicle), mean",hNaV1.7; -6.91009 Log M,0.02
same,"hNav1.7 current (352)/(Vehicle), mean",hNaV1.7; -7.38722 Log M,0.01
same,"hNav1.7 current (352)/(Vehicle), mean",hNaV1.7; -7.85387 Log M,0.02
same,"hNav1.7 current (352)/(Vehicle), mean",hNaV1.7; -8.30103 Log M,-0.02
same,IC50,"hNaV1.7; Vh -60 mV, HEK-293",14 µM
same,mNaV1.2 current (352)/(Vehicle),mNaV1.2; -4.22185 Log M,0.86
same,mNaV1.2 current (352)/(Vehicle),mNaV1.2; -4.69897 Log M,0.58
same,mNaV1.2 current (352)/(Vehicle),mNaV1.2; -5.17607 Log M,0.39
same,mNaV1.2 current (352)/(Vehicle),mNaV1.2; -5.65326 Log M,0.19
same,mNaV1.2 current (352)/(Vehicle),mNaV1.2; -6.13018 Log M,0.14
same,mNaV1.2 current (352)/(Vehicle),mNaV1.2; -6.6073 Log M,0.04
same,mNaV1.2 current (352)/(Vehicle),mNaV1.2; -7.08619 Log M,0.08
same,mNaV1.2 current (352)/(Vehicle),mNaV1.2; -7.56864 Log M,0.05
same,IC50,mNaV1.2; Vh -45 mV,11 µM
same,"hNav1.2 current (352)/(Vehicle), mean",hNaV1.2; -4 Log M,0.88
same,"hNav1.2 current (352)/(Vehicle), mean",hNaV1.2; -4.47713 Log M,0.78
same,"hNav1.2 current (352)/(Vehicle), mean",hNaV1.2; -4.95425 Log M,0.6
same,"hNav1.2 current (352)/(Vehicle), mean",hNaV1.2; -5 Log M,0.66
same,"hNav1.2 current (352)/(Vehicle), mean",hNaV1.2; -5.43133 Log M,0.42
same,"hNav1.2 current (352)/(Vehicle), mean",hNaV1.2; -5.47716 Log M,0.44
same,"hNav1.2 current (352)/(Vehicle), mean",hNaV1.2; -5.90833 Log M,0.21
same,"hNav1.2 current (352)/(Vehicle), mean",hNaV1.2; -5.95429 Log M,0.14
same,"hNav1.2 current (352)/(Vehicle), mean",hNaV1.2; -6.3851 Log M,0.11
same,"hNav1.2 current (352)/(Vehicle), mean",hNaV1.2; -6.86328 Log M,0.04
same,"hNav1.2 current (352)/(Vehicle), mean",hNaV1.2; -6.91009 Log M,0.03
same,"hNav1.2 current (352)/(Vehicle), mean",hNaV1.2; -7.33724 Log M,0.01
same,"hNav1.2 current (352)/(Vehicle), mean",hNaV1.2; -7.38722 Log M,0
same,"hNav1.2 current (352)/(Vehicle), mean",hNaV1.2; -7.85387 Log M,0.01
same,"hNav1.2 current (352)/(Vehicle), mean",hNaV1.2; -8.30103 Log M,0.01
same,IC50,"hNaV1.2; Vh -45 mV, HEK-293",6.9 µM
same,inhibition at 30 µM,"hNaV1.3; 30 µM, NaV1.3, read-out: inhibition at the highest concentration tested",< 50%
same,"hNaV1.3 current (352)/(Vehicle), mean",hNaV1.3; -4.52288 Log M,0.17
same,"hNaV1.3 current (352)/(Vehicle), mean",hNaV1.3; -5 Log M,0.03
same,"hNaV1.3 current (352)/(Vehicle), mean",hNaV1.3; -5.47716 Log M,0.01
same,"hNaV1.3 current (352)/(Vehicle), mean",hNaV1.3; -5.95429 Log M,-0.01
same,"hNaV1.3 current (352)/(Vehicle), mean",hNaV1.3; -6.91009 Log M,0.01
same,"hNaV1.3 current (352)/(Vehicle), mean",hNaV1.3; -7.38722 Log M,0.02
same,"hNaV1.3 current (352)/(Vehicle), mean",hNaV1.3; -7.85387 Log M,-0.01
same,IC50,"hNaV1.3; Vh -45 mV, HEK-293",> 30 µM
same,"effect on action-potential firing, pyramidal neurons",[1]; 0.25 µM NBI-921352,decreased the maximum firing rate; also recorded: reduced action-potential spiking
same,WT Cortical pyramidal neurons APs/1s,[1]; 200 pA current injected,0 APs/1s and 12 APs/1s and 13 APs/1s
same,WT Cortical pyramidal neurons APs/1s,[1]; current injected 0 pA,0 APs/1s
same,WT Cortical pyramidal neurons APs/1s,[1]; current injected 20 pA,0 APs/1s
same,WT Cortical pyramidal neurons APs/1s,[1]; current injected 40 pA,0 APs/1s
same,WT Cortical pyramidal neurons APs/1s,"[1]; current injected 60 pA, row",0 APs/1s and 1 APs/1s and 2 APs/1s
same,WT Cortical pyramidal neurons APs/1s,"[1]; current injected 80 pA, row",0 APs/1s and 4 APs/1s and 6 APs/1s
same,WT Cortical pyramidal neurons APs/1s,"[1]; current injected 100 pA, row",0 APs/1s and 6 APs/1s and 8 APs/1s
same,WT Cortical pyramidal neurons APs/1s,"[1]; current injected 120 pA, row",0 APs/1s and 7 APs/1s and 9 APs/1s
same,WT Cortical pyramidal neurons APs/1s,"[1]; current injected 140 pA, row",0 APs/1s and 8 APs/1s and 10 APs/1s
same,WT Cortical pyramidal neurons APs/1s,"[1]; current injected 160 pA, row",0 APs/1s and 9 APs/1s and 12 APs/1s
same,WT Cortical pyramidal neurons APs/1s,"[1]; current injected 180 pA, row",0 APs/1s and 11 APs/1s (2×)
same,WT Cortical pyramidal neurons APs/1s,"[1]; current injected 200 pA, row",0 APs/1s and 12 APs/1s and 13 APs/1s
same,WT Cortical pyramidal neurons APs/1s,"[1]; current injected 220 pA, row",1 APs/1s and 13 APs/1s and 14 APs/1s
same,WT Cortical pyramidal neurons APs/1s,"[1]; current injected 240 pA, row",3 APs/1s and 14 APs/1s and 15 APs/1s
same,WT Cortical pyramidal neurons APs/1s,"[1]; current injected 260 pA, row",4 APs/1s and 15 APs/1s and 13 APs/1s
same,WT Cortical pyramidal neurons APs/1s,"[1]; current injected 280 pA, row",4 APs/1s and 15 APs/1s and 13 APs/1s
same,WT Cortical pyramidal neurons APs/1s,"[1]; current injected 300 pA, row",4 APs/1s and 17 APs/1s and 13 APs/1s
same,WT Cortical pyramidal neurons APs/1s,"[1]; current injected 320 pA, row",5 APs/1s and 18 APs/1s and 13 APs/1s
same,WT Cortical pyramidal neurons APs/1s,"[1]; current injected 340 pA, row",5 APs/1s and 19 APs/1s and 12 APs/1s
same,WT Cortical pyramidal neurons APs/1s,"[1]; current injected 360 pA, row",6 APs/1s and 20 APs/1s and 12 APs/1s
same,WT Cortical pyramidal neurons APs/1s,"[1]; current injected 380 pA, row",7 APs/1s (2×) and 21 APs/1s
same,WT Cortical pyramidal neurons APs/1s,"[1]; current injected 400 pA, row",8 APs/1s and 22 APs/1s and 13 APs/1s
same,WT Cortical pyramidal neurons APs/1s,"[1]; current injected 420 pA, row",7 APs/1s and 22 APs/1s and 5 APs/1s
same,WT Cortical pyramidal neurons APs/1s,"[1]; current injected 440 pA, row",7 APs/1s and 23 APs/1s and 4 APs/1s
same,WT Cortical pyramidal neurons APs/1s,[1]; current injected -20 pA,0 APs/1s
same,Cumulative number of action potentials fired by each cell on increasing current injections,[1]; up to current injected 0 pA,0
same,Cumulative number of action potentials fired by each cell on increasing current injections,[1]; up to current injected 20 pA,0
same,Cumulative number of action potentials fired by each cell on increasing current injections,[1]; up to current injected 40 pA,0
same,Cumulative number of action potentials fired by each cell on increasing current injections,[1]; up to current injected -20 pA,0
same,IC50,hNaV1.4,> 30 µM
same,inhibition at 30 µM,hNaV1.4; read-out: inhibition at the highest concentration tested,< 50%
